From article PMC5727211, “Development of Erasin: a chromone-based STAT3 inhibitor which induces apoptosis in Erlotinib-resistant lung cancer cells” (Scientific Reports, 2017)
“Also recorded” adds a separate entry of the source.

Key:
[1] = NMR-based stability analysis (hydrolysis of acyl hydrazone to aldehyde); assay type: physicochemical; settings: deuterated phosphate buffer pD = 7.9 with DMSO-d6, 24 h
Description: The formation of acyl hydrazones from aldehydes is a reversible reaction. […] The strongly divergent relative activities of the aldehydes 8a and 9a compared to the acyl hydrazones 8 and 9 imply that the activity of the acyl hydrazones is not a consequence of aldehyde formation.
Na2DPO4 (C/D/N Isotopes, 8.5 mM) and NaD2PO4 (C/D/N Isotopes, 3.3 mM) were dissolved in D2O to give a total phosphate concentration of 11.8 mM. The measured pH of 7.5 corresponds to a pD of 7.91 according to the literature.
This reduction tails off, consistent with the idea that inhibition of STAT3 by 8 is a slow but reversible process. An alternative explanation for time-dependent inhibition would be covalent modification of the Michael acceptor of the chromones by the protein. While we cannot formally exclude this possibility, two observations argue against cysteine alkylation as the […]
double bond of 8. B) Secondly, omission of the strong nucleophile dithiothreitol (DTT) from the assay […]
easily susceptible to covalent modification by nucleophiles. Data after 2 h of incubation are shown. C) Activity of 8 in a fluorescence polarization assay against wild-type STAT3 or a STAT3 Glu594Ala mutant after 2 h incubation in the presence of 1 mM DTT. […]

[2] = target: STAT3 Glu594Ala mutant (Homo sapiens, UniProt P40763, E594A); assay: FP assay against STAT3 Glu594Ala mutant; assay type: binding
Text: The predicted (E)-trans-configuration of the acyl hydrazone moiety in the protein-bound state was also observed in the X-ray structure of crystals of 8 grown from ethyl acetate / hexane (Supplementary Fig. S4). Substantial conformational changes of the protein are required for ligand binding (Supplementary Fig. S3), a process which can account for the observed time-dependence of inhibition by 8 (Supplementary Fig. S5). […] Substitution of the pyridyl ring for electron-rich, five-membered heteroaromatic rings is tolerated (17–19). […] This behavior is consistent with hydrogen bonding between the molecules’ carbonyl group and the backbone amide of Gln635 as proposed by the docking studies (Fig. 2b), which is expected to suffer from electron-withdrawing substituents on the phenyl ring. Further evidence for hydrogen bonding arises from the inactivity of derivative 22, in which the carbonyl group has been deleted. Substitution of the carbonyl by a sulfonyl group (compound 23) is also not tolerated, indicating specific recognition of 8 by STAT3.
This reduction tails off, consistent with the idea that inhibition of STAT3 by 8 is a slow but reversible process. […]
easily susceptible to covalent modification by nucleophiles. […] C) Activity of 8 in a fluorescence polarization assay against wild-type STAT3 or a STAT3 Glu594Ala mutant after 2 h incubation in the presence of 1 mM DTT. […]

[3] = test system: STAT1 Tyr701 phosphorylation; assay: Western Blot, IFN-γ-stimulated STAT1 Tyr701 phosphorylation in HepG2 cells; assay type: cell-based, human; settings: 1 h pre-treatment, 15 min 50 ng/mL IFNγ
Text: (§1) An inhibitor of a STAT SH2 domain prevents phosphorylation of STATs at this conserved tyrosine residue, thereby inhibiting STAT-mediated signal transduction (Fig. 3a). Consistent with its activity in the FP assay, 8 inhibited interleukin (IL)-6-stimulated STAT3 Tyr705 phosphorylation in HepG2 cells in a dose-dependent manner (Fig. 3b). […] In contrast, tyrosine phosphorylation of STAT5 in K562 cells is not inhibited (Fig. 3d). The activity profile in cells thus reflects the selectivity profile seen in vitro (Fig. 2a, Table 1), supporting the notion that cellular activities are mediated by functional inhibition of the STAT SH2 domains.
(§2) HepG2 cells were plated in 6-well plates (Corning #3516) and allowed to reach approximately 60% confluence. The medium was then replaced with serum-free medium for 24 h. […]
(§3) Lysates were separated on a polyacrylamide gel under denaturing conditions, and transferred to a nitrocellulose membrane. STAT phosphorylation was assessed using rabbit monoclonal antibodies against the phosphorylated forms only of STAT1, STAT3 or STAT5 (Cell Signaling, 1:1000) with secondary antibody swine anti-rabbit HRP from Dako, 1:3000), followed by reblotting with rabbit monoclonal antibodies against total STAT1, STAT3 or STAT5 (Cell Signaling), and subsequently β-actin loading control. […]

[4] = test system: STAT3 Tyr705 phosphorylation; assay: Western Blot, IL-6-stimulated STAT3 Tyr705 phosphorylation in HepG2 cells; assay type: cell-based, human; settings: 1 h pre-treatment, 30 min 50 ng/mL IL-6
Text: as §1, §2, §3

[5] = test system: STAT5 phosphorylation; assay: Western Blot, STAT5 tyrosine phosphorylation in K562 cells; assay type: cell-based, human
Text: as §1, §2, §3

Sequence of STAT3 Glu594Ala mutant (P40763 whole entry E594A): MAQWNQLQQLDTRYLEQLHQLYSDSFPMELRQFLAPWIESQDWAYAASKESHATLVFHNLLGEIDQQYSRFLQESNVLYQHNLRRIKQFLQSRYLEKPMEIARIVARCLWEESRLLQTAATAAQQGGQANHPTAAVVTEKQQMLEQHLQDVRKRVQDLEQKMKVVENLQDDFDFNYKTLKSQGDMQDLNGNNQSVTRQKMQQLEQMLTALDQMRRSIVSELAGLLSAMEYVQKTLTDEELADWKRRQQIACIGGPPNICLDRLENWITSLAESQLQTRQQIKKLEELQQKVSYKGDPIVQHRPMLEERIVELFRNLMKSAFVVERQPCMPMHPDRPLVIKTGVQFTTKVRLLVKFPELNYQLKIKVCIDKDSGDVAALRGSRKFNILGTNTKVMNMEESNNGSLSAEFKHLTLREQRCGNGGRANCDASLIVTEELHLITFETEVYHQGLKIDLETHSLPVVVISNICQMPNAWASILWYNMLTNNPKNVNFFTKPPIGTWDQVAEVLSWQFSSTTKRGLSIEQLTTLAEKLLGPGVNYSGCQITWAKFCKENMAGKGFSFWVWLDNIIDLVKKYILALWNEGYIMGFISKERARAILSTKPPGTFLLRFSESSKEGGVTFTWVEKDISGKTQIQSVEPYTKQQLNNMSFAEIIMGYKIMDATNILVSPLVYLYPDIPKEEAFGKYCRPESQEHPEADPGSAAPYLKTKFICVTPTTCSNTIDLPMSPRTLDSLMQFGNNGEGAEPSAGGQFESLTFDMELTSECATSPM

## CC(C)(C)c1ccc2occ(/C=N/NC(=O)c3cccnc3)c(=O)c2c1 [Compound 8]
[1]
  hydrolysis to the aldehyde (1H-NMR): no sign of hydrolysis; also recorded: no sign of aldehyde release
[2]
  activity against STAT3 Glu594Ala mutant compared to wild-type STAT3: three-fold lower activity
[2]; 2 h incubation, 1 mM DTT, read-out: app. IC50 against STAT3 Glu594Ala mutant
  IC50: 27 ± 1 µM
[3]
  IFN-γ-stimulated phosphorylation of STAT1 Tyr701: inhibited to a lesser extent
[4]
  IL-6-stimulated STAT3 Tyr705 phosphorylation: inhibited
[5]
  tyrosine phosphorylation of STAT5: not inhibited
